No end group written: not given here.

The results in this text go back to patent US9340577B2, “HLA binding motifs and peptides and their uses” (priority 1992, dated 2016).

Common to all, as to assay: biochemical
One test addresses DRB3*0101 (Homo sapiens, UniProt P01903+P79483). The class given is binding.
The target of another test is DRB1*1302 (Homo sapiens, UniProt P01903+P01911, A100E/A169T/K41T/L162R/M171V/P40S/Q125H/Q178H/Q39Y/Q99D/R42S/S66N/T262R/V115G/W38E/Y61H). The class given is binding.
A further test addresses DR1 (DRB1*0101) (Homo sapiens, UniProt P01903+P01911, A100R/D57E/F55L/F60I/F76Y/I96L/L162R/M171V/P40L/Q125E/R42F/V115G/Y59C). Type of test: binding.
The target of the next test is DRB5*0101 (Homo sapiens, UniProt P01903+Q30154). The conditions noted are these: Binding affinity DRB5 *0101.
In a further test the target is DRB1*1201 (Homo sapiens, UniProt P01903+P01911, A100R/A169T/D57E/D86V/F55L/H45Y/K41T/L162R/M171V/P40S/Q125H/Q178H/Q39Y/Q99D/R42G/S66L/T262R/V114A/V67L/W38E/Y59H/Y61H/Y89S). The class given is binding.
The next test has as its target DRB1*1101 (Homo sapiens, UniProt P01903+P01911, A100R/A169T/A87E/I96F/K41T/L162R/M171V/P40S/Q125H/Q178H/Q39Y/Q99D/R42S/S66Y/T262R/V115G/W38E). The note with it: Binding affinity DRB1 *1101.
The target in a further test is DR7 (DRB1*0701) (Homo sapiens, UniProt P01903+P01911, A100R/A102G/A103Q/D57E/D86V/E43K/F76Y/K127E/L162R/M171V/P40G/Q125H/Q99D/R33Q/R42Y/R54Q/S133A/S66F/T210M/V115G/Y107V/Y59L/Y89S). Type of test: binding.
A further test addresses DRB1*0802 (Homo sapiens, UniProt P01903+P01911, A100R/A103L/A169T/F76Y/H45Y/I96F/K41T/L162R/M171V/P40S/Q125H/Q178H/Q39Y/Q99D/R218S/R42G/S66Y/V115G/W38E). Type of test: binding.
The target of a further test is DR4w4 (DRB1*0401) (Homo sapiens, UniProt P01903+P01911, A100K/A169T/F76Y/I96L/K127E/L162R/M171V/N62H/P40V/Q125Y/R42H/S133A/S149N/S66Y/V115G/V209L/W38E). Type of test: binding.
In a further test the target is DRB1*1501 (Homo sapiens, UniProt P01903+P01911). Type of test: binding.
The target in the next test is DRB1*0901 (Homo sapiens, UniProt P01903+P01911, A100R/A103E/D57H/D86V/F55Y/F60I/F76Y/I96F/K127E/L162R/M171V/P40D/Q125H/Q99R/R33Q/R42F/S133A/S66N/T210M/V115G/W38K/Y107V/Y59G/Y89S). Type of test: binding.

DRB1*1302, sequence (P01903 26-254 limits assumed, other chains not shown): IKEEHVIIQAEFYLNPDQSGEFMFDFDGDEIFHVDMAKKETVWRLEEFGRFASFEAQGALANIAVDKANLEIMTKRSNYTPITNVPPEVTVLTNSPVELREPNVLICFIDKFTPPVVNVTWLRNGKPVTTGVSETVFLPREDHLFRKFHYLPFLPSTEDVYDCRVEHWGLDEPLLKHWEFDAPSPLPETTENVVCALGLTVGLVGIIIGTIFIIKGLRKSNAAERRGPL
DRB1*1101, sequence (P01903 26-254 limits assumed, other chains not shown): as above

Consider `CC[C@H](C)[C@H](NC(=O)[C@@H]1CCCN1C(=O)[C@H](CC(=O)O)NC(=O)[C@@H](NC(=O)[C@@H]1CCCN1C(=O)[C@H](Cc1ccccc1)NC(=O)[C@@H](NC(=O)[C@H](CC(=O)O)NC(=O)[C@@H](NC(=O)[C@@H]1CCCN1C(=O)[C@H](CO)NC(=O)[C@@H](N)CCCNC(=N)N)[C@@H](C)CC)[C@@H](C)O)[C@@H](C)O)C(=O)N[C@@H](CCCCN)C(=O)N[C@@H](CCC(=O)O)C(=O)N[C@@H](CO)C(=O)O` [Peptide 68.0026], for which the IC50 against DRB3*0101, on DRB1*1302, against DR1 (DRB1*0101), on DRB5*0101, against DRB1*1201 and at DRB1*1101 was over 20 µM in each case. Further, the IC50 against DR7 (DRB1*0701) and against DRB1*0802 was over 20 µM each time.
As for GRAVCGGVLVHPQWV [Peptide 68.0062], the IC50 is over 20 µM at DRB3*0101; 16.4 µM on DRB1*1201; over 20 µM at DR4w4 (DRB1*0401); over 20 µM on DRB1*1101; over 20 µM on DRB1*0802.
`CSCC[C@H](NC(=O)[C@@H](NC(=O)[C@H](CCCCN)NC(=O)[C@@H](NC(=O)[C@H](C)NC(=O)[C@H](CC(=O)O)NC(=O)[C@@H](N)[C@@H](C)O)C(C)C)C(C)C)C(=O)N[C@@H](CC(=O)O)C(=O)N[C@@H](CC(C)C)C(=O)N1CCC[C@H]1C(=O)N[C@H](C(=O)N[C@@H](CCC(N)=O)C(=O)N[C@@H](CCC(=O)O)C(=O)N1CCC[C@H]1C(=O)N[C@@H](C)C(=O)O)[C@@H](C)O` [Peptide 68.0074]: the IC50 on DRB3*0101, against DRB1*1302, on DR1 (DRB1*0101), against DRB1*1501, at DRB5*0101 and at DRB1*1201 was over 20 µM throughout. Moreover, the IC50 against DRB1*0901, at DR4w4 (DRB1*0401), at DRB1*1101, against DR7 (DRB1*0701) and at DRB1*0802 was over 20 µM in each case.
Take `CSCC[C@H](NC(=O)CNC(=O)[C@H](CC(C)C)NC(=O)[C@H](CCC(N)=O)NC(=O)[C@@H](NC(=O)[C@H](CC(C)C)NC(=O)[C@H](CCC(N)=O)NC(=O)CNC(=O)[C@@H](N)Cc1ccccc1)[C@@H](C)O)C(=O)N[C@@H](CCC(=O)O)C(=O)N[C@@H](CCC(N)=O)C(=O)N[C@@H](Cc1c[nH]cn1)C(=O)N[C@@H](Cc1ccc(O)cc1)C(=O)N[C@@H](CCC(=O)O)C(=O)N[C@@H](CC(C)C)C(=O)O` [Peptide 68.0028]: the IC50 against DRB3*0101 is over 20 µM; at DRB1*1302, over 20 µM; on DRB1*1501, over 20 µM; on DRB1*1201, 0.653 µM; against DRB1*0901 it was over 20 µM; at DRB1*1101, over 20 µM. The IC50 at DR7 (DRB1*0701) and against DRB1*0802 was over 20 µM throughout.
Turning to KSRLQGGVLVNEILN [Peptide 68.0046], the IC50 is over 20 µM on DRB3*0101; over 20 µM at DRB1*1501; over 20 µM on DRB5*0101; 9.6 µM against DRB1*1201; over 20 µM against DR4w4 (DRB1*0401); over 20 µM at DRB1*1101. The IC50 on DRB1*0802 is over 20 µM.
For LSGLHGQDLFGIWSK [Peptide 68.0040], the IC50 against DRB3*0101 is over 20 µM; at DRB1*1302, over 20 µM; against DRB1*1501 it was over 20 µM; on DRB5*0101, over 20 µM; on DRB1*1201, 7.89 µM; against DRB1*0901, over 20 µM. Besides, the IC50 against DR4w4 (DRB1*0401), on DRB1*1101, on DR7 (DRB1*0701) and at DRB1*0802 was over 20 µM throughout.
In the case of GQRVPVSHSFPHPLY [Peptide 68.0005], the IC50 was over 20 µM at DRB3*0101; over 20 µM at DRB5*0101; 5.51 µM against DRB1*1201; over 20 µM at DR4w4 (DRB1*0401); over 20 µM at DRB1*1101; over 20 µM against DRB1*0802.
PEEFLRPRSLQCVSL [Peptide 68.0015]: the IC50 is over 20 µM against DRB3*0101, over 20 µM on DRB5*0101, 6.02 µM against DRB1*1201 and over 20 µM at DR4w4 (DRB1*0401).
YDPLYCESVHNFTLP [Peptide 68.0041]: the IC50 on DRB3*0101, at DRB1*1302, at DRB5*0101, at DRB1*1201, on DRB1*1101 and against DRB1*0802 was over 20 µM throughout.
`CC[C@H](C)[C@H](N)C(=O)N[C@@H](Cc1ccc(O)cc1)C(=O)N[C@@H](CO)C(=O)N[C@H](C(=O)N[C@@H](CO)C(=O)N[C@@H](CCSC)C(=O)N[C@@H](CCCCN)C(=O)N[C@@H](Cc1c[nH]cn1)C(=O)N1CCC[C@H]1C(=O)N[C@@H](CCC(N)=O)C(=O)N[C@@H](CCC(=O)O)C(=O)N[C@@H](CCSC)C(=O)N[C@@H](CCCCN)C(=O)N[C@H](C(=O)N[C@@H](Cc1ccc(O)cc1)C(=O)O)[C@@H](C)O)[C@@H](C)CC` [Peptide 68.0126]: the IC50 against DRB3*0101 was over 20 µM; against DRB1*1302, over 20 µM; against DRB1*1201, 11.4 µM.
For the molecule `CSCC[C@H](NC(=O)[C@H](CC(=O)O)NC(=O)[C@H](Cc1ccc(O)cc1)NC(=O)[C@H](CC(C)C)NC(=O)[C@@H]1CCCN1C(=O)[C@H](Cc1c[nH]cn1)NC(=O)[C@@H]1CCCN1)C(=O)N[C@@H](CO)C(=O)N[C@@H](CC(C)C)C(=O)N[C@@H](CC(C)C)C(=O)N[C@@H](CCCCN)C(=O)N[C@@H](CC(N)=O)C(=O)N[C@@H](CCCNC(=N)N)C(=O)N[C@@H](Cc1ccccc1)C(=O)N[C@@H](CC(C)C)C(=O)O` [Peptide 68.0071], the IC50 was over 20 µM at DRB3*0101; 0.487 µM at DRB1*1201; over 20 µM at DR4w4 (DRB1*0401); over 20 µM on DRB1*1101; over 20 µM against DRB1*0802.
On to QWVLTAAHCLKKNSQ [Peptide 68.0004], for which the IC50 against DRB3*0101, against DRB1*1302, at DRB1*1501, against DRB1*1201, against DR4w4 (DRB1*0401) and at DRB1*0802 was over 20 µM in each case.
`CC[C@H](C)[C@H](NC(=O)[C@@H]1CCCN1C(=O)[C@H](CCC(N)=O)NC(=O)[C@@H](N)Cc1c[nH]c2ccccc12)C(=O)N1CCC[C@H]1C(=O)N[C@H](C(=O)N[C@@H](Cc1c[nH]cn1)C(=O)N[C@H](C(=O)N[C@H](C(=O)N1CCC[C@H]1C(=O)N[C@@H](CC(C)C)C(=O)N[C@@H](CO)C(=O)N[C@@H](CCC(=O)O)C(=O)N[C@@H](CC(=O)O)C(=O)N[C@@H](CCC(N)=O)C(=O)O)C(C)C)[C@@H](C)O)C(C)C` [Peptide 68.0039]: the IC50 on DRB3*0101, on DRB1*1501, at DRB5*0101, against DRB1*1201, against DR4w4 (DRB1*0401) and on DRB1*1101 was over 20 µM throughout. Besides, the IC50 at DRB1*0802 is over 20 µM.
Regarding `CC(C)C[C@H](NC(=O)[C@H](CCC(N)=O)NC(=O)[C@H](C)NC(=O)[C@H](CC(N)=O)NC(=O)[C@H](CCCCN)NC(=O)[C@@H](NC(=O)[C@H](CCCCN)NC(=O)[C@H](CC(N)=O)NC(=O)CN)C(C)C)C(=O)N[C@@H](C)C(=O)NCC(=O)N[C@@H](C)C(=O)N[C@@H](CCCCN)C(=O)NCC(=O)N[C@H](C(=O)O)C(C)C` [Peptide 68.0097], the IC50 against DRB3*0101, against DRB1*1302, against DRB1*1501, against DRB1*1201, at DRB1*1101 and on DR7 (DRB1*0701) was over 20 µM in each case. The molecule further gave an IC50 at DRB1*0802 of over 20 µM.
In the case of TNKFSGYPLYHSVYE [Peptide 68.0116], the concentration for half-maximal inhibition (IC50) is over 20 µM on DRB3*0101; over 20 µM against DRB1*1302; 4.48 µM against DRB1*1201; over 20 µM at DRB1*1101; over 20 µM on DR7 (DRB1*0701).
